From US20040071633A1, “Method for determining efficacy of reverse cholesterol transport enhancing agents” (priority 2003, published 2004)
pEC50: −log10 of the molar value.

Tests used:
CD14 mRNA = CD14 mRNA expression by real-time quantitative TaqMan PCR in THP-1 or HepG2 cells; format: cell-based, human
Method: (§1) FIGS. 5a and 5b are graphs showing that activation of LXR increases mRNA expression of ABCA1 and CD14. THP-1 or HepG2 cells (5×10^5 cells/well) were plated in 6-well plates, and mixed with buffer (open bar) or 22(R)—OH cholesterol (10 μM, closed bar). After overnight incubation (˜16 hr) at 37° C., RNA samples were prepared from the cultured cells, and mRNAs for ABCA1 (a) and CD14 (b) were measured as described in Example 4, below. Results are presented as fold of control (untreated cells), and data are shown as the means±range of duplicate determinations.
(§2) Recent studies indicate that cholesterol efflux from cells is regulated by the transcription factor, LXR, which binds regulatory oxysterols and enhances expression of ABCA1 (see Costet, P., Luo, Y., Wang, N., and Tall, A. R. (2000) J. Biol. Chem. 275, 28240-28245; and Schwartz, K., Lawn, R. M., and Wade, D. P. (2000) Biochem. Biophys. Res. Commun. 274, 794-802.). If CD14 shared with ABCA1 a role in cholesterol efflux from cells, the expression of CD14 might be regulated in parallel with ABCA1 to help achieve cholesterol homeostasis. To test this, cells were incubated with 22(R)-hydroxycholesterol (22R—OH cholesterol), a specific ligand for LXR, and expression of ABCA1 and CD14 mRNA was measured by real time PCR. […] The dose dependence for induction of ABCA1 and CD14 was roughly similar with half-maximal induction observed at ˜10 μM (not shown). Induction of ABCA1 appeared slightly more rapid than that of CD14, but both reached a plateau level by 16 hr. The magnitude of the response of CD14 to 22R—OH cholesterol was less than that observed for ABCA1, but the increase was consistently seen with either of these two cell types. […]
(§3) Real-time quantitative TaqMan PCR analysis (Heid, C. A., Stevens, J., Livak, K. J., and Williams, P. M. (1996) Genome Res. 6, 986-994) was used to determine the relative levels of CD14 and ABCA1 mRNA. […] Sequence-specific amplification was detected with an increased fluorescent signal of FAM (reporter dye) during the amplification cycle. […]

ABCA1 mRNA = ABCA1 mRNA expression by real-time quantitative TaqMan PCR in THP-1 or HepG2 cells; format: cell-based, human
Method: as §1, §2, §3

THP-1 cells [1] = assay: sCD14 acceleration of cholesterol efflux from [3H]cholesterol-labeled THP-1 cells to apo A-I, HDL3 or HDL; format: cell-based; conditions: sCD14 5 μg/ml alone or apo A-I 100 μg/ml alone
Method: FIG. 2 is a graph showing the kinetics of cholesterol efflux by sCD14 and/or apo A-I. [^3H]cholesterol-labeled THP-1 cells were incubated with or without 5 μg/ml of sCD14 and/or 100 μg/ml of apo A-I in RPMI. Background efflux without proteins at each time was measured and subtracted from other data point. Closed circles, sCD14; open circles, apo A-I; inverted triangles, sCD14 and apo A-L. Data represents the mean of three measurements±SD. The data were repeated with similar results.
FIG. 3 is a graph showing the dose dependent additive effect of sCD14 for cholesterol efflux to apo A-I but not to HDL. [^3 H]cholesterol-labeled TBP-1 cells were incubated in buffer containing 50 μg/ml of apo A-I, HDL3 or HDL with or without the indicated concentration of sCD14 for 1 h. Open bar, without sCD14; hatched bar, 10 μg/ml sCD14; black bar, 25 μg/ml sCD14. Background efflux without proteins at each time was measured and subtracted from other data point. Asterisks show statistical significance compared to the data without sCD14: *, p<0.01; **, p<0.001. Data are representative of three independent experiments with similar results.
The following experiment was performed to determine if sCD14 could facilitate the efflux of cholesterol to its major acceptor, apo A-I (FIG. 2). […]

THP-1 cells [2] = assay: cholesterol efflux from [3H]cholesterol-labeled THP-1 cells mediated by sCD14 or apo A-I; format: cell-based
Method: FIGS. 1a, 1b and 1c are graphs showing the effect of sCD14 concentration on cholesterol efflux. [^3H]cholesterol-labeled THP-1 cells were incubated with the indicated concentration of sCD14 (closed circles), apo A-I (open circles) or HSA (inverted triangles) in RPMI for 30 min (a and b) or for 20 h (c). Each point represents the mean of three measurements±SD (a) or the average of duplicate samples±range (b and c). Data are representative of five independent experiments with similar results.
[^3H]cholesterol-labeled THP-1 cells were incubated with increasing concentrations of sCD14, apo A-I or the control protein, HSA, and radioactivity in the supernatant was determined. The initial rate of cholesterol efflux was explored in studies of short duration (30 min, FIG. 1a and with extended dose response in FIG. 1b). […] Because of the linear dose-dependence of sCD14-mediated efflux and because no other cholesterol acceptor was present in the incubation, these observations appear most consistent with a direct, low affinity binding of cholesterol to sCD14.
The maximal extent of cholesterol efflux mediated by apo A-I and sCD14 was explored in parallel experiments of 24 hr duration (FIG. 1c). […] However, because of the limiting concentrations of sCD14 in plasma (3-5 μg/ml) and the far greater concentration of apo A-I (˜1 mg/ml), sCD14 per se is unlikely to be a significant reservoir or destination for the cholesterol in plasma.

[3] = THP-1 monocytes or HepG2, 10 μM, overnight (~16 hr)

| Molecule | time to plateau level of CD14 induction (CD14 mRNA) [h] | pEC50 (CD14 mRNA; Homo sapiens, dose dependence (not shown), read-out: half-maximal induction of CD14) | CD14 mRNA expression (CD14 mRNA; [3]) | time to plateau level of ABCA1 induction (ABCA1 mRNA) [h] | pEC50 (ABCA1 mRNA; Homo sapiens, dose dependence (not shown), read-out: half-maximal induction of ABCA1) | ABCA1 mRNA expression (ABCA1 mRNA; [3]) | cholesterol efflux by protein alone, kinetic analysis (THP-1 cells [1]) | concentration at which cholesterol efflux is saturable (THP-1 cells [2]; 30 min assays, THP-1 cells, no other cholesterol acceptor) [µg/mL] | concentration leading to near maximal cholesterol efflux (THP-1 cells [2]; 24 hr duration, THP-1 cells) [µg/mL] | capacity to mediate cholesterol efflux relative to CD14 (THP-1 cells [2]; 24 hr duration, comparison of dose-dependence curves) |
| --- | --- | --- | --- | --- | --- | --- | --- | --- | --- | --- |
| CC(C)CC[C@@H](O)[C@@H](C)[C@H]1CC[C@H]2[C@@H]3CC=C4C[C@@H](O)CC[C@]4(C)[C@H]3CC[C@]12C [22(R)-hydroxycholesterol] | ≤ 16 | ~5.00 | consistent rise | ≤ 16 | ~5.00 | consistent rise | – | – | – | – |
| apo A-I: apolipoprotein A-I, major acceptor of cellular cholesterol | – | – | – | – | – | – | larger efflux | 10 to 20 | 10 | 10-20 fold |
